Values quoted from earlier work in patent publication US11446274B2, “Use of dianhydrogalactitol or derivatives or analogs thereof for treatment of pediatric central nervous system malignancies” (DelMar Pharmaceuticals, Inc., priority 2015, dated 2022).
Read-outs that look alike come from different tables or passages of the source.

How the values were obtained:
[1] = target: glycogen synthase kinase-3β (GSK-3β) (Homo sapiens, UniProt P49841); details: cited from earlier work
[2] = test system: cells that are either MGMT-positive or MGMT-negative or MMR-proficient or MMR-deficient; details: cited from earlier work

Sequence of glycogen synthase kinase-3β (GSK-3β) (P49841 whole entry, species assumed): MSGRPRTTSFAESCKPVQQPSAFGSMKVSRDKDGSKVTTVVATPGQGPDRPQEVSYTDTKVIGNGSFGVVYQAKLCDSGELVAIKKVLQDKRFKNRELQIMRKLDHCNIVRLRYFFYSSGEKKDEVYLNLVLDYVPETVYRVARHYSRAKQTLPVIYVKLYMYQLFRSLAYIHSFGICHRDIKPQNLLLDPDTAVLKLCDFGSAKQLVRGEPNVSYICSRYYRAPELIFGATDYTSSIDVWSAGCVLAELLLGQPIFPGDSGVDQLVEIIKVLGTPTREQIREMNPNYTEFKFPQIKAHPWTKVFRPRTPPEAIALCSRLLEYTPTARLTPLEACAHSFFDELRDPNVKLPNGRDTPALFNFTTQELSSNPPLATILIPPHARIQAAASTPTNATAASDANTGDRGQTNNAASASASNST

Row | Structure (SMILES) | concentration for inhibition of GSK-3β [1] [nM] | sensitivity ([2]; MGMT Negative, MMR-Deficient) | sensitivity ([2]; MGMT Negative, MMR-Proficient) | sensitivity ([2]; MGMT Positive, MMR-Deficient) | sensitivity ([2]; MGMT Positive, MMR-Proficient)
1 | CN1C(=O)/C(=C2/C(=O)Nc3ccccc32)c2ccccc21 [Meisoindigo, meisoindigo] | 5 to 50 | – | – | – | –
2 | N.N.[Cl][Pt][Cl] [cisplatin] | – | Resistant | Sensitive | Resistant | Sensitive
